Measured values taken from PubChem BioAssay AID248 (DTP/NCI, 2004).
Inconclusive results and toxic doses are left out. Cut-off read from the data, not from the text of the source: active = T/C of 150% or more; inactive = T/C below 125%.

Test system: L1210 leukemia ip in BDF1 mice, survival T/C
Test: NCI In Vivo Anticancer Drug Screen. Data for tumor model L1210 Leukemia (intraperitoneal) in B6D2F1 (BDF1) mice
Settings: endpoint: mean survival time, higher = longer survival
How it was run: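 Survival endpoint. Drug-treated group vs vehicle group, expressed as T divided by C. Tumor passaged by transplantation.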

[1] = dose: 100.0 mg/kg/injection, schedule: Q01DX005 (ip), vehicle: saline
[2] = dose: 200.0 mg/kg/injection, schedule: Q01DX005 (ip), vehicle: saline
[3] = dose: 100.0 mg/kg/injection, schedule: Q01DX009 (ip), vehicle: Klucel (hydroxypropylcellulose) (HPC)
[4] = dose: 100.0 mg/kg/injection, schedule: Q01DX001 (ip), vehicle: saline
[5] = dose: 200.0 mg/kg/injection, schedule: Q01DX001 (ip), vehicle: saline
[6] = dose: 400.0 mg/kg/injection, schedule: Q01DX001 (ip), vehicle: saline
[7] = dose: 100.0 mg/kg/injection, schedule: Q04DX003 (ip), vehicle: Klucel (hydroxypropylcellulose) (HPC)
[8] = dose: 200.0 mg/kg/injection, schedule: Q04DX003 (ip), vehicle: Klucel (hydroxypropylcellulose) (HPC)
[9] = dose: 400.0 mg/kg/injection, schedule: Q04DX003 (ip), vehicle: Klucel (hydroxypropylcellulose) (HPC)
[10] = dose: 100.0 mg/kg/injection, schedule: Q04DX003 (ip), vehicle: saline with Tween-80
[11] = dose: 200.0 mg/kg/injection, schedule: Q04DX003 (ip), vehicle: saline with Tween-80
[12] = dose: 25.0 mg/kg/injection, schedule: Q04DX002 (ip), vehicle: saline with Tween-80
[13] = dose: 50.0 mg/kg/injection, schedule: Q04DX002 (ip), vehicle: saline with Tween-80
[14] = dose: 100.0 mg/kg/injection, schedule: Q04DX002 (ip), vehicle: Klucel (hydroxypropylcellulose) (HPC)

Measured: T/C

N#Cc1c(NN)n(C2OC(CO)C(O)C2O)c2ncnc(N)c12 (centres undefined)
inactive: dose: 25.0 mg/kg/injection, schedule: Q01DX005 (ip), vehicle: saline 107 % of control | dose: 50.0 mg/kg/injection, schedule: Q01DX005 (ip), vehicle: saline 90 % of control | [1] 105 % of control | [2] 96 % of control

O=[N+]([O-])c1ccc(OCc2cccc(Cl)c2S(=O)(=O)F)c(Cl)c1
inactive: dose: 100.0 mg/kg/injection, schedule: Q04DX003 (ip), vehicle: gum acacia 98 % of control | dose: 200.0 mg/kg/injection, schedule: Q04DX003 (ip), vehicle: gum acacia 104 % of control | dose: 400.0 mg/kg/injection, schedule: Q04DX003 (ip), vehicle: gum acacia 97 % of control

CC1CCCC/C1=N/NC(N)=O (centres undefined)
inactive: [3] 97 % of control | dose: 100.0 mg/kg/injection, schedule: Q04DX003 (ip), vehicle: saline 97 % of control | dose: 200.0 mg/kg/injection, schedule: Q04DX003 (ip), vehicle: saline 88 % of control | dose: 400.0 mg/kg/injection, schedule: Q04DX003 (ip), vehicle: saline 95 % of control

Cn1c2nc(=O)[nH]c(=O)c-2cc2ccccc21
inactive: [4] 100 % of control | [5] 94 % of control | [6] 97 % of control

O=S(=O)(O)/[N+]([O-])=N/O
inactive: dose: 100.0 mg/kg/injection, schedule: Q04DX003 (ip), vehicle: saline sonified 94 % of control | dose: 200.0 mg/kg/injection, schedule: Q04DX003 (ip), vehicle: saline sonified 100 % of control | dose: 400.0 mg/kg/injection, schedule: Q04DX003 (ip), vehicle: saline sonified 95 % of control

CC(=O)OCC1OC(n2cnc3c(C)nc(F)nc32)C(OC(C)=O)C1OC(C)=O (centres undefined)
inactive: dose: 50.0 mg/kg/injection, schedule: Q01DX001 (ip), vehicle: other 105 % of control | dose: 100.0 mg/kg/injection, schedule: Q01DX001 (ip), vehicle: other 113 % of control | dose: 200.0 mg/kg/injection, schedule: Q01DX001 (ip), vehicle: other 103 % of control | dose: 400.0 mg/kg/injection, schedule: Q01DX001 (ip), vehicle: other 108 % of control

Nc1ncnc2c1ncn2C1OC(COP(=O)(O)O)C(O)C1OCc1ccccc1 (centres undefined)
inactive: [1] 112 % of control | [2] 95 % of control

O=S(=O)(F)c1ccc(-c2cc(Cl)c3cc(F)ccc3n2)cc1
inactive: [7] 105 % of control | [8] 106 % of control | [9] 106 % of control

OC1COC(OCc2ccccc2)C(O)C1O (centres undefined)
inactive: dose: 100.0 mg/kg/injection, schedule: Q01DX001 (ip), vehicle: Klucel (hydroxypropylcellulose) (HPC) 101 % of control | [10] 101 % of control | dose: 200.0 mg/kg/injection, schedule: Q01DX001 (ip), vehicle: Klucel (hydroxypropylcellulose) (HPC) 96 % of control | [11] 100 % of control | dose: 400.0 mg/kg/injection, schedule: Q01DX001 (ip), vehicle: Klucel (hydroxypropylcellulose) (HPC) 101 % of control

O=C(O)CCCCCN1C(=O)C2CC=CCC2C1=O (centres undefined)
inactive: dose: 6.0 mg/kg/injection, schedule: Q04DX002 (ip), vehicle: saline with Tween-80 106 % of control | dose: 12.5 mg/kg/injection, schedule: Q04DX002 (ip), vehicle: saline with Tween-80 91 % of control | [12] 98 % of control | [13] 102 % of control

O=C(NC(=S)Nc1cccc(Cl)c1)c1cccc([N+](=O)[O-])c1
inactive: [3] 103 % of control | [7] 105 % of control | dose: 200.0 mg/kg/injection, schedule: Q01DX009 (ip), vehicle: Klucel (hydroxypropylcellulose) (HPC) 100 % of control | [8] 97 % of control | dose: 400.0 mg/kg/injection, schedule: Q01DX009 (ip), vehicle: Klucel (hydroxypropylcellulose) (HPC) 100 % of control | [9] 95 % of control

CCCCCCCCCCCCCCCCOc1c(Cl)cc(Cl)cc1Cl
inactive: [14] 102 % of control | dose: 200.0 mg/kg/injection, schedule: Q04DX002 (ip), vehicle: Klucel (hydroxypropylcellulose) (HPC) 98 % of control | dose: 400.0 mg/kg/injection, schedule: Q04DX002 (ip), vehicle: Klucel (hydroxypropylcellulose) (HPC) 102 % of control

Nc1c(O)c(Cl)cc(Cl)c1Cl
inactive: dose: 100.0 mg/kg/injection, schedule: Q04DX002 (ip), vehicle: other 110 % of control | dose: 200.0 mg/kg/injection, schedule: Q04DX002 (ip), vehicle: other 107 % of control

CC(C#N)c1cccc(C(=O)O)c1 (centres undefined)
inactive: dose: 100.0 mg/kg/injection, schedule: Q01DX001 (ip), vehicle: carboxymethylcellulose (CMC) 105 % of control | dose: 200.0 mg/kg/injection, schedule: Q01DX001 (ip), vehicle: carboxymethylcellulose (CMC) 105 % of control | dose: 400.0 mg/kg/injection, schedule: Q01DX001 (ip), vehicle: carboxymethylcellulose (CMC) 96 % of control

NCCCCC(=O)NC(CCCCNC(=O)OCc1ccccc1)C(=O)NCCCCC(=O)NC(CCCCNC(=O)OCc1ccccc1)C(=O)NCCCCC(=O)NC(CCCCNC(=O)OCc1ccccc1)C(=O)NCCCCC(=O)NC(CCCCNC(=O)OCc1ccccc1)C(=O)NCCCCC(=O)NC(CCCCNC(=O)OCc1ccccc1)C(=O)O (centres undefined)
inactive: [4] 90 % of control

COC(=O)c1nc(Cl)nc(SC)c1Cl
inactive: [7] 96 % of control | [8] 110 % of control | [9] 96 % of control

O=CC(CCN1CCCCC1)(CCN1CCCCC1)c1cccc2ccccc12
inactive: dose: 25.0 mg/kg/injection, schedule: Q04DX002 (ip), vehicle: Klucel (hydroxypropylcellulose) (HPC) 107 % of control | dose: 50.0 mg/kg/injection, schedule: Q04DX002 (ip), vehicle: Klucel (hydroxypropylcellulose) (HPC) 100 % of control | [3] 105 % of control | [14] 98 % of control

CCCCCCCC(CCCCCC)(OO)C(=O)OC (centres undefined)
inactive: [12] 100 % of control | [13] 95 % of control | dose: 100.0 mg/kg/injection, schedule: Q04DX002 (ip), vehicle: saline with Tween-80 91 % of control

CCOC(=O)C(=O)c1ccc[nH]1
inactive: dose: 100.0 mg/kg/injection, schedule: Q01DX001 (ip), vehicle: saline with Tween-80 114 % of control | [10] 94 % of control | dose: 200.0 mg/kg/injection, schedule: Q01DX001 (ip), vehicle: saline with Tween-80 115 % of control | [11] 101 % of control | dose: 400.0 mg/kg/injection, schedule: Q01DX001 (ip), vehicle: saline with Tween-80 111 % of control | dose: 400.0 mg/kg/injection, schedule: Q04DX003 (ip), vehicle: saline with Tween-80 92 % of control

COC1OC2COC(c3ccccc3)OC2C(OS(=O)(=O)c2ccc(C)cc2)C1OS(=O)(=O)c1ccc(C)cc1 (centres undefined)
inactive: dose: 100.0 mg/kg/injection, schedule: Q01DX009 (ip), vehicle: saline with Tween-80 93 % of control | [10] 88 % of control | dose: 200.0 mg/kg/injection, schedule: Q01DX009 (ip), vehicle: saline with Tween-80 90 % of control | [11] 91 % of control | dose: 400.0 mg/kg/injection, schedule: Q01DX009 (ip), vehicle: saline with Tween-80 95 % of control

CCCN1CCN(CCCO)CC1C (centres undefined)
inactive: [4] 103 % of control | [5] 105 % of control | [6] 103 % of control

CCC(C)(C)N
inactive: [4] 91 % of control | [5] 97 % of control | [6] 101 % of control

CCOP(=O)(CCl)NC12CC3CC(CC(C3)C1)C2 (centres undefined)
inactive: [7] 96 % of control | [8] 100 % of control
